Laboratory results as given in US20250114420A1, “ANTIMICROBIAL NATURAL COMPOSITIONS” (BIO-ACTIVES SYNERGIO LTD, priority 2022, published 2025).

Tests used:
C. albicans (CA) = experiment: Agar dilution test; assay type: cell-based, Candida albicans; parameters: key: (+) indicates growth; (+/−) indicates partial growth; (−) indicates no growth; conditions: Table 4, 24-48 hours
Procedure: (§1) An agar dilution test was carried out for various combinations of saponin extract (Sapindus mukorossi) and Styrax extract (Sumatra benzoin), with maltol extracted from wheat as an additional plant extract, for evaluating the synergistic antimicrobial effect therebetween.
(§2) The agar dilution test was carried out as follows: TSA (tryptic soy agar) or SDA (Sabouraud dextrose agar) media were melted at 99±2° C. and kept warm until seeding (43±2° C.). Into a quota of the growth medium, the maltol and extract were added and stirred. 5 ml of the mixture was poured into each test plate and left to cool and solidify. The plates were then inoculated by defined amounts of test microorganisms (E. coli, S. aureus and P. aeruginosa used on TSA plates, C. albicans and A. brasilliensis used on the SDA plates). The plates were incubated at 25-35° C. for 24-48 hours and then assessed for microorganisms' growth.
(§3) The test results for the combinations of saponin and Styrax extracts with maltol are detailed in Table 4, while the results for the compositions of saponin and Styrax extracts with maltol and citric acid are shown in Table 5. (+) indicates growth, (+/−) indicates partial growth, while (−) indicates no growth. Positive control was obtained by utilizing a commercial preservative. […]

E. coli (EC) = experiment: Agar dilution test; assay type: cell-based, Escherichia coli; parameters: key: (+) indicates growth; (+/−) indicates partial growth; (−) indicates no growth; conditions: Table 4, 24-48 hours
Procedure: as §1, §2, §3

P. aeruginosa (PA) = experiment: Agar dilution test; assay type: cell-based, Pseudomonas aeruginosa; parameters: key: (+) indicates growth; (+/−) indicates partial growth; (−) indicates no growth; conditions: Table 4, 24-48 hours
Procedure: as §1, §2, §3

S. aureus (SA) = experiment: Agar dilution test; assay type: cell-based, Staphylococcus aureus; parameters: key: (+) indicates growth; (+/−) indicates partial growth; (−) indicates no growth; conditions: Table 4, 24-48 hours
Procedure: as §1, §2, §3

A. brasilliensis (AB) = experiment: Agar dilution test; assay type: cell-based, Aspergillus brasiliensis; parameters: key: (+) indicates growth; (+/−) indicates partial growth; (−) indicates no growth; conditions: Table 4, 24-48 hours
Procedure: as §1, §2, §3

[1] = system: mixture of S. aureus, S. capitis, S. epidermis and S. hominis; experiment: Agar plates of cream samples inoculated with skin microbiota mixture (FIGS. 1A-1D); assay type: cell-based; conditions: cream sample; after 7 hours of incubation
Procedure: FIGS. […] The upper panel of each agar plate was plated with mixture of representative microorganisms to provide a control to each of the experiments.
The mixture of microorganisms represents the natural skin microbiota. […] In comparison, FIGS. 1C and 1D show samples of the cream with the bottom half of the sample containing the compositions 5A and 5B, respectively, and without preservative in the upper half.

Structure (SMILES)	Agar dilution test result (growth), CA (C. albicans (CA); Teat 2 (duplicate))	Agar dilution test result (growth), CA (C. albicans (CA); Test 1)	Agar dilution test result (growth), EC (E. coli (EC); Teat 2 (duplicate))	Agar dilution test result (growth), EC (E. coli (EC); Test 1)	Agar dilution test result (growth), PA (P. aeruginosa (PA); Teat 2 (duplicate))	Agar dilution test result (growth), PA (P. aeruginosa (PA); Test 1)	Agar dilution test result (growth), SA (S. aureus (SA); Teat 2 (duplicate))	Agar dilution test result (growth), SA (S. aureus (SA); Test 1)	Agar dilution test result (growth), AB (A. brasilliensis (AB); Teat 2 (duplicate))	Agar dilution test result (growth), AB (A. brasilliensis (AB); Test 1)	effect on natural skin microbiota on agar plate (FIGS. 1A-1D) [1]
Cc1occc(=O)c1O [ML 0.1%, maltol]	−	−	+	+	−	−	−	−	+/−	+/−	
Cc1occc(=O)c1O [ML 0.02%, maltol]	+	+	+	+	+	+	+	+	+	+	
Cc1occc(=O)c1O [ML 0.2%, maltol]	−	−	−	−	−	−	−	−	−	−	
Cc1occc(=O)c1O [ML 0.04%, maltol]	+/−	+/−	+	+	+	+	+/−	+/−	+	+	
Cc1occc(=O)c1O [ML 0.05%, maltol]	+	+	+	+	+/−	+/−	+/−	+/−	+	+	
Cc1occc(=O)c1O [ML 0.08%, maltol]	−	−	+/−	+/−	−	−	+	+	+/−	+/−	
CCCCC(CC)COCC(O)CO (stereo not shown) [commercial synthetic preservative, ethylhexyl glycerin]											almost complete elimination of the microbiota
